These are literature values, as cited in US20100227874A1, “REDUCTION OF OXIDATIVE STRESS DAMAGE DURING OR AFTER EXERCISE” (NESTEC S.A., priority 2007, published 2010).

For this data set, the system named is rat adipocytes. The following applies: insulin-potentiating epididymal fat-cell assay with rat adipocytes.

SMILES strings stand for the structures.

For `O=C(O[C@@H]1Cc2c(O)cc(O)cc2O[C@@H]1c1ccc(O)c(O)c1)c1cc(O)c(O)c(O)c1` [epicatechin gallate], the “Insulin activity in vitro” value is recorded as “enhance insulin activity”.

With `O=C(O[C@@H]1Cc2c(O)cc(O)cc2O[C@@H]1c1cc(O)c(O)c(O)c1)c1cc(O)c(O)c(O)c1` [epigallocatechin gallate], the “Insulin activity in vitro” value is listed as “enhance insulin activity”.
